From the NIST ThermoML archive (doi:10.1021/je0340912)
Values joined by “and” are separate entries in the source; they are usually repeats but may differ in a detail not shown here. Equal entries are not always repeated. ± gives the expanded uncertainty stated by the source.

How the values were obtained:
[1] = excess molar enthalpy (molar enthalpy of mixing); xn = mol fraction of the nth substance listed; details: 101.32 kPa, Liquid, Flow calorimetry
[2] = Liquid; for mass density: 101.33 kPa

## C=C(C)CC(C)(C)C [2,4,4-trimethyl-1-pentene] + CCC(C)O
[1]; 298.15 K, x2 = 0.0544
  excess molar enthalpy: 0.13 ± 0.00153 kcal/mol
[1]; 298.15 K, x2 = 0.0832
  excess molar enthalpy: 0.159 ± 0.00184 kcal/mol
[1]; 298.15 K, x2 = 0.1597
  excess molar enthalpy: 0.202 ± 0.00225 kcal/mol
[1]; 298.15 K, x2 = 0.2314
  excess molar enthalpy: 0.227 ± 0.00263 kcal/mol
[1]; 298.15 K, x2 = 0.2987
  excess molar enthalpy: 0.243 ± 0.00263 kcal/mol
[1]; 298.15 K, x2 = 0.3621
  excess molar enthalpy: 0.251 ± 0.00263 kcal/mol
[1]; 298.15 K, x2 = 0.4217
  excess molar enthalpy: 0.252 ± 0.00287 kcal/mol
[1]; 298.15 K, x2 = 0.4781
  excess molar enthalpy: 0.249 ± 0.00263 kcal/mol
[1]; 298.15 K, x2 = 0.5313
  excess molar enthalpy: 0.241 ± 0.00263 kcal/mol
[1]; 298.15 K, x2 = 0.5818
  excess molar enthalpy: 0.229 ± 0.00263 kcal/mol
[1]; 298.15 K, x2 = 0.6296
  excess molar enthalpy: 0.213 ± 0.00237 kcal/mol
[1]; 298.15 K, x2 = 0.675
  excess molar enthalpy: 0.196 ± 0.0022 kcal/mol
[1]; 298.15 K, x2 = 0.7182
  excess molar enthalpy: 0.177 ± 0.00201 kcal/mol
[1]; 298.15 K, x2 = 0.7593
  excess molar enthalpy: 0.156 ± 0.00179 kcal/mol
[1]; 298.15 K, x2 = 0.7986
  excess molar enthalpy: 0.134 ± 0.00158 kcal/mol
[1]; 298.15 K, x2 = 0.836
  excess molar enthalpy: 0.112 ± 0.00136 kcal/mol
[1]; 298.15 K, x2 = 0.8717
  excess molar enthalpy: 0.0891 ± 0.00112 kcal/mol
[1]; 298.15 K, x2 = 0.9059
  excess molar enthalpy: 0.0665 ± 0.000908 kcal/mol
[1]; 298.15 K, x2 = 0.9386
  excess molar enthalpy: 0.0437 ± 0.000669 kcal/mol
[1]; 298.15 K, x2 = 0.9699
  excess molar enthalpy: 0.0219 ± 0.000454 kcal/mol

## C=C(C)CC(C)(C)C [2,4,4-trimethyl-1-pentene]
[2]; 298.15 K
  mass density: 711.3 ± 1 kg/m3
[2]; 374.34 K
  vapor or sublimation pressure: 101.4 ± 0.3 kPa and 101.3 ± 0.3 kPa

## CCC(C)O (configuration not stated) [butan-2-ol]
[2]; 298.15 K
  mass density: 802.4 ± 0.6 kg/m3
[2]; 372.14 K
  vapor or sublimation pressure: 100.5 ± 0.2 kPa

## C=C(C)CC(C)(C)C [2,4,4-trimethyl-1-pentene] + CC(C)(C)O
[1]; 300.15 K, x2 = 0.0529
  excess molar enthalpy: 0.125 ± 0.00148 kcal/mol
[1]; 300.15 K, x2 = 0.0811
  excess molar enthalpy: 0.151 ± 0.00174 kcal/mol
[1]; 300.15 K, x2 = 0.1559
  excess molar enthalpy: 0.188 ± 0.00213 kcal/mol
[1]; 300.15 K, x2 = 0.2264
  excess molar enthalpy: 0.208 ± 0.00232 kcal/mol
[1]; 300.15 K, x2 = 0.2928
  excess molar enthalpy: 0.218 ± 0.00239 kcal/mol
[1]; 300.15 K, x2 = 0.3555
  excess molar enthalpy: 0.225 ± 0.00239 kcal/mol
[1]; 300.15 K, x2 = 0.4148
  excess molar enthalpy: 0.227 ± 0.00263 kcal/mol
[1]; 300.15 K, x2 = 0.471
  excess molar enthalpy: 0.228 ± 0.00263 kcal/mol
[1]; 300.15 K, x2 = 0.5241
  excess molar enthalpy: 0.226 ± 0.00263 kcal/mol
[1]; 300.15 K, x2 = 0.5242
  excess molar enthalpy: 0.225 ± 0.00239 kcal/mol
[1]; 300.15 K, x2 = 0.5747
  excess molar enthalpy: 0.222 kcal/mol
[1]; 300.15 K, x2 = 0.6229
  excess molar enthalpy: 0.216 ± 0.00239 kcal/mol
[1]; 300.15 K, x2 = 0.6687
  excess molar enthalpy: 0.207 ± 0.00232 kcal/mol
[1]; 300.15 K, x2 = 0.7124
  excess molar enthalpy: 0.195 ± 0.0022 kcal/mol
[1]; 300.15 K, x2 = 0.7541
  excess molar enthalpy: 0.18 ± 0.00203 kcal/mol
[1]; 300.15 K, x2 = 0.7939
  excess molar enthalpy: 0.161 ± 0.00186 kcal/mol
[1]; 300.15 K, x2 = 0.832
  excess molar enthalpy: 0.141 ± 0.00165 kcal/mol
[1]; 300.15 K, x2 = 0.8685
  excess molar enthalpy: 0.118 ± 0.00141 kcal/mol
[1]; 300.15 K, x2 = 0.9034
  excess molar enthalpy: 0.0915 ± 0.00115 kcal/mol
[1]; 300.15 K, x2 = 0.9369
  excess molar enthalpy: 0.0626 ± 0.00086 kcal/mol
[1]; 300.15 K, x2 = 0.9691
  excess molar enthalpy: 0.0326 ± 0.000574 kcal/mol

## CC(C)(C)O [2-methylpropan-2-ol]
[2]; 303.15 K
  mass density: 775.5 ± 0.6 kg/m3
[2]; 355.13 K
  vapor or sublimation pressure: 100.6 ± 0.2 kPa
